From US11716992B2, “5A5B6C tricyclic spirolactone derivative, preparation method therefor and use thereof” (NANKAI UNIVERSITY, priority 2017, dated 2023)
Where “and” joins values, the source holds several entries; their conditions need not be identical. Equal values may be shown once.

These molecules were tested on Botrytis cinerea (assay: Fungicidal activity, fungicide growth rate method, BC). Details: Botrytis cinerea, 50 μg/mL; read-out: fungicidal activity (growth inhibition rate), BC.
Format: cell-based

| Structure (SMILES) | inhibition at 50 µg/mL [%] |
| --- | --- |
| C=CC[C@@H]1C[C@]2(O[Si](C)(C)CC=C)CCO[C@@]23CC[C@H](O[Si](C)(C)CC=C)C[C@@H]13 [Zyj07-48] | > 50 |
| C=C(C)[C@@H]1C[C@]2(O)CC(=O)O[C@@]23CC=CC[C@H]13 [Zyj06-175] | 25 |
| C=C(C)C1CC(=O)[C@@]2(O)CC=CC[C@H]12 (stereo partly shown) [Zyj06-166] | 36 |

The molecules below were run on Alternaria solani (assay: Fungicidal activity, fungicide growth rate method, AS). Details: Alternaria solani, 50 μg/mL; read-out: fungicidal activity (growth inhibition rate), AS.
Format: cell-based

| Structure (SMILES) | inhibition at 50 µg/mL [%] |
| --- | --- |
| C=CC[C@@H]1C[C@]2(O[Si](C)(C)CC=C)CCO[C@@]23CC[C@H](O[Si](C)(C)CC=C)C[C@@H]13 [Zyj07-48] | 0 |

What follows are molecules tested on Rhizoctonia cerealis (assay: Fungicidal activity, fungicide growth rate method, RC). Details: Ceratobasidium cereale, 50 μg/mL; read-out: fungicidal activity (growth inhibition rate), RC.
Format: cell-based

| Structure (SMILES) | inhibition at 50 µg/mL [%] |
| --- | --- |
| C=CC[C@@H]1C[C@]2(O[Si](C)(C)CC=C)CCO[C@@]23CC[C@H](O[Si](C)(C)CC=C)C[C@@H]13 [Zyj07-48] | 0 |
| C=C(C)[C@@H]1C[C@]2(O)CC(=O)O[C@@]23CC=CC[C@H]13 [Zyj06-175] | 61 |
| C=C(C)C1CC(=O)[C@@]2(O)CC=CC[C@H]12 (stereo partly shown) [Zyj06-166] | 0 |

The molecules below were run on Physalospora piricola (assay: Fungicidal activity, fungicide growth rate method, PP). Details: 50 μg/mL; read-out: fungicidal activity (growth inhibition rate), PP.
Format: cell-based

| Structure (SMILES) | inhibition at 50 µg/mL [%] |
| --- | --- |
| C=CC[C@@H]1C[C@]2(O[Si](C)(C)CC=C)CCO[C@@]23CC[C@H](O[Si](C)(C)CC=C)C[C@@H]13 [Zyj07-48] | 13 |
| C=C(C)[C@@H]1C[C@]2(O)CC(=O)O[C@@]23CC=CC[C@H]13 [Zyj06-175] | 8 |
| C=C(C)C1CC(=O)[C@@]2(O)CC=CC[C@H]12 (stereo partly shown) [Zyj06-166] | 38 |

These molecules were tested on Ostrinia furnacalis (assay: Insecticidal activity against Ostrinia furnacalis). Details: Ostrinia furnacalis, read-out: insecticidal activity, Ostrinia furnacalis.
Format: in vivo

| Structure (SMILES) | pest or weed control at 100 µg/mL [%] |
| --- | --- |
| C=CC[C@@H]1C[C@]2(O[Si](C)(C)CC=C)CCO[C@@]23CC[C@H](O[Si](C)(C)CC=C)C[C@@H]13 [Zyj07-48] | 0 |

Same assay, conditions: Ostrinia furnacalis; 100 μg/mL; read-out: insecticidal activity, Ostrinia furnacalis

| Structure (SMILES) | pest or weed control at 100 µg/mL [%] |
| --- | --- |
| C=C(C)C1CC(=O)[C@@]2(O)CC=CC[C@H]12 (stereo partly shown) [Zyj06-166] | 0 |

Each molecule was assayed on Apis mellifera ligustica Spin (assay: not given). Details: dosage 9.89 μg a.i./bee.

| Structure (SMILES) | Death rate after 48 h (%) |
| --- | --- |
| C=CC[C@@H]1C[C@]2(O[Si](C)(C)CC=C)CCO[C@@]23CC[C@H](O[Si](C)(C)CC=C)C[C@@H]13 [Zyj07-48] | 5.0 |

Same assay, conditions: dosage 9.89 μg a.i./bee; per replicate of 10 bees

| Structure (SMILES) | Death number after 24 h | Death number after 48 h |
| --- | --- | --- |
| C=CC[C@@H]1C[C@]2(O[Si](C)(C)CC=C)CCO[C@@]23CC[C@H](O[Si](C)(C)CC=C)C[C@@H]13 [Zyj07-48] | 0 | 0 and 1 |

Same assay, conditions: dosage 9.93 μg a.i./bee

| Structure (SMILES) | Death rate after 48 h (%) |
| --- | --- |
| C=C(C)C1CC(=O)[C@@]2(O)CC=CC[C@H]12 (stereo partly shown) [Zyj06-166] | 0 |

Same assay, conditions: dosage 9.93 μg a.i./bee; per replicate of 10 bees

| Structure (SMILES) | Death number after 24 h | Death number after 48 h |
| --- | --- | --- |
| C=C(C)C1CC(=O)[C@@]2(O)CC=CC[C@H]12 (stereo partly shown) [Zyj06-166] | 0 | 0 |

Same assay, conditions: dosage 19.7 μg a.i./bee

| Structure (SMILES) | Death rate after 48 h (%) |
| --- | --- |
| C=C(C)C1CC(=O)[C@@]2(O)CC=CC[C@H]12 (stereo partly shown) [Zyj06-166] | 10.0 |

Same assay, conditions: dosage 19.7 μg a.i./bee; per replicate of 10 bees

| Structure (SMILES) | Death number after 24 h | Death number after 48 h |
| --- | --- | --- |
| C=C(C)C1CC(=O)[C@@]2(O)CC=CC[C@H]12 (stereo partly shown) [Zyj06-166] | 0 | 1 |

Same assay, conditions: dosage 19.8 μg a.i./bee

| Structure (SMILES) | Death rate after 48 h (%) |
| --- | --- |
| C=CC[C@@H]1C[C@]2(O[Si](C)(C)CC=C)CCO[C@@]23CC[C@H](O[Si](C)(C)CC=C)C[C@@H]13 [Zyj07-48] | 0 |

Same assay, conditions: dosage 19.8 μg a.i./bee; per replicate of 10 bees

| Structure (SMILES) | Death number after 24 h | Death number after 48 h |
| --- | --- | --- |
| C=CC[C@@H]1C[C@]2(O[Si](C)(C)CC=C)CCO[C@@]23CC[C@H](O[Si](C)(C)CC=C)C[C@@H]13 [Zyj07-48] | 0 | 0 |

These molecules were tested on Sclerotinia sclerotiorum (assay: Fungicidal activity, fungicide growth rate method, SS). Details: Sclerotinia sclerotiorum, 50 μg/mL.
Format: cell-based

| Structure (SMILES) | inhibition at 50 µg/mL [%] |
| --- | --- |
| C=CC[C@@H]1C[C@]2(O[Si](C)(C)CC=C)CCO[C@@]23CC[C@H](O[Si](C)(C)CC=C)C[C@@H]13 [Zyj07-48] | > 50 |
| C=C(C)[C@@H]1C[C@]2(O)CC(=O)O[C@@]23CC=CC[C@H]13 [Zyj06-175] | 11 |
| C=C(C)C1CC(=O)[C@@]2(O)CC=CC[C@H]12 (stereo partly shown) [Zyj06-166] | 17 |

The molecules below were run on Phytophthora infestans (Mont.) de Bary (assay: microbe, parasite or virus in culture). Details: Phytophthora infestans, read-out: fungicidal activity (growth inhibition rate), PI, 50 μg/mL.
Format: cell-based

| Structure (SMILES) | inhibition at 50 µg/mL [%] |
| --- | --- |
| C=CC[C@@H]1C[C@]2(O[Si](C)(C)CC=C)CCO[C@@]23CC[C@H](O[Si](C)(C)CC=C)C[C@@H]13 [Zyj07-48] | 19 |
| C=C(C)[C@@H]1C[C@]2(O)CC(=O)O[C@@]23CC=CC[C@H]13 [Zyj06-175] | 0 |
| C=C(C)C1CC(=O)[C@@]2(O)CC=CC[C@H]12 (stereo partly shown) [Zyj06-166] | 25 |

Each molecule was assayed on Helicoverpa armigera (Hübner) (assay: Insecticidal activity against Helicoverpa armigera (Hübner)). Details: Helicoverpa armigera, read-out: insecticidal activity, Helicoverpa armigera (Hübner).
Format: in vivo

| Structure (SMILES) | pest or weed control at 100 µg/mL [%] |
| --- | --- |
| C=CC[C@@H]1C[C@]2(O[Si](C)(C)CC=C)CCO[C@@]23CC[C@H](O[Si](C)(C)CC=C)C[C@@H]13 [Zyj07-48] | 0 |

Same assay, conditions: Helicoverpa armigera; 100 μg/mL; read-out: insecticidal activity, Helicoverpa armigera (Hübner)

| Structure (SMILES) | pest or weed control at 100 µg/mL [%] |
| --- | --- |
| C=C(C)C1CC(=O)[C@@]2(O)CC=CC[C@H]12 (stereo partly shown) [Zyj06-166] | 0 |

These molecules were tested on Pellicularia sasakii (assay: Fungicidal activity, fungicide growth rate method, PS). Details: 50 μg/mL; read-out: fungicidal activity (growth inhibition rate), PS.
Format: cell-based

| Structure (SMILES) | inhibition at 50 µg/mL [%] |
| --- | --- |
| C=CC[C@@H]1C[C@]2(O[Si](C)(C)CC=C)CCO[C@@]23CC[C@H](O[Si](C)(C)CC=C)C[C@@H]13 [Zyj07-48] | 14 |
| C=C(C)[C@@H]1C[C@]2(O)CC(=O)O[C@@]23CC=CC[C@H]13 [Zyj06-175] | 5 |
| C=C(C)C1CC(=O)[C@@]2(O)CC=CC[C@H]12 (stereo partly shown) [Zyj06-166] | 18 |

These molecules were tested on Caenorhabditis elegans (assay: Insecticidal activity against Caenorhabditis elegans). Details: Caenorhabditis elegans, 100 μg/mL; read-out: insecticidal activity, Caenorhabditis elegans.
Format: in vivo

| Structure (SMILES) | pest or weed control at 100 µg/mL [%] |
| --- | --- |
| C=C(C)[C@@H]1C[C@]2(O)CC(=O)O[C@@]23CC=CC[C@H]13 [Zyj06-175] | 15 |
| C=C(C)C1CC(=O)[C@@]2(O)CC=CC[C@H]12 (stereo partly shown) [Zyj06-166] | 5 |

Same assay, conditions: Caenorhabditis elegans, read-out: insecticidal activity, Caenorhabditis elegans

| Structure (SMILES) | pest or weed control at 100 µg/mL [%] |
| --- | --- |
| C=CC[C@@H]1C[C@]2(O[Si](C)(C)CC=C)CCO[C@@]23CC[C@H](O[Si](C)(C)CC=C)C[C@@H]13 [Zyj07-48] | 25 |

What follows are molecules tested on Cercospora arachidicola (assay: Fungicidal activity, fungicide growth rate method, CA). Details: Mycosphaerella arachidis, 50 μg/mL; read-out: fungicidal activity (growth inhibition rate), CA.
Format: cell-based

| Structure (SMILES) | inhibition at 50 µg/mL [%] |
| --- | --- |
| C=CC[C@@H]1C[C@]2(O[Si](C)(C)CC=C)CCO[C@@]23CC[C@H](O[Si](C)(C)CC=C)C[C@@H]13 [Zyj07-48] | 35 |
| C=C(C)[C@@H]1C[C@]2(O)CC(=O)O[C@@]23CC=CC[C@H]13 [Zyj06-175] | 33 |
| C=C(C)C1CC(=O)[C@@]2(O)CC=CC[C@H]12 (stereo partly shown) [Zyj06-166] | > 50 |

These molecules were tested on Mythimna separate (Walker) (assay: Insecticidal activity against Mythimna separate (Walker)). Details: Mythimna, 100 μg/mL; read-out: insecticidal activity, Mythimna separate (Walker).
Format: in vivo

| Structure (SMILES) | pest or weed control at 100 µg/mL [%] |
| --- | --- |
| C=C(C)C1CC(=O)[C@@]2(O)CC=CC[C@H]12 (stereo partly shown) [Zyj06-166] | 0 |

Same assay, conditions: Mythimna, read-out: insecticidal activity, Mythimna separate (Walker)

| Structure (SMILES) | pest or weed control at 100 µg/mL [%] |
| --- | --- |
| C=CC[C@@H]1C[C@]2(O[Si](C)(C)CC=C)CCO[C@@]23CC[C@H](O[Si](C)(C)CC=C)C[C@@H]13 [Zyj07-48] | 0 |

The molecules below were run on wheat Gibberella zeae (assay: microbe, parasite or virus in culture). Details: Fusarium graminearum, read-out: fungicidal activity (growth inhibition rate), GZ, 50 μg/mL.
Format: cell-based

| Structure (SMILES) | inhibition at 50 µg/mL [%] |
| --- | --- |
| C=CC[C@@H]1C[C@]2(O[Si](C)(C)CC=C)CCO[C@@]23CC[C@H](O[Si](C)(C)CC=C)C[C@@H]13 [Zyj07-48] | 7 |
| C=C(C)[C@@H]1C[C@]2(O)CC(=O)O[C@@]23CC=CC[C@H]13 [Zyj06-175] | 14 |
| C=C(C)C1CC(=O)[C@@]2(O)CC=CC[C@H]12 (stereo partly shown) [Zyj06-166] | 27 |
